Source: patent publication US20100166708A1, “ANTIMICROBIAL AND ANTI-INFLAMMATORY THERAPIES AND COMPOSITIONS” (THE REGENTS OF THE UNIVERSITY OF CALIFORNIA, priority 2007, published 2010)
Values after ≈ are worked out from the molar mass of the structure shown. Values joined by “and” are separate entries in the source; they are usually repeats but may differ in a detail not shown here. Identical values can stand only once. Like-named read-outs stand apart in the source and are kept apart here.

Tests used:
[1] = ANTS/DPX leakage from lipid vesicles; conditions: incubated with lipid vesicles for 1 hour
Description: Both delta-haemolysin and PSMdelta were evaluated for their ability to perforate synthetic lipid vesicles. Lipid vesicles were made with a 2:1 molar ratio of POPC to POPG. The lipid vesicles, extruded through a 200 nm polycarbonate film, encapsulated the fluorescent dye, ANTS, and a quencher: DPX. Upon membrane perforation, ANTS/DPX are released and separated, allowing ANTS to fluoresce at 530 nm.

[2] = Excerpt: (§1) Tryptophan emission is a sensitive indicator for the physical environment surrounding the amino acid (˜330 nm in a folded or hydrophobic environment; ˜355 nm in an unfolded or aqueous environment).
[3] = remark: listed apart in the source
Excerpt: Sequestration of tryptophan (Trp) can be observed through blue shift in wavelength of photon emission after excitation at 290 nm. […] (c) overlay of emission spectra.
as §1

GAS membranes = assay: SEM analysis of GAS membranes; type: cell-based, Group A Streptococcus; conditions: 16 μM peptide

Compound | ANTS fluorescence at 530 nm (vesicle leakage) [1] | deltaG^1(H2O) ([2]; 5 μM peptide) | midpoint of the unfolding curve ([2]; 5 μM peptide) | deltaG^1(H2O) ([2]; 25 μM peptide) | midpoint of the unfolding curve ([2]; 25 μM peptide) | deltaG^1(H2O) ([2]; 25 μM peptide, figure legend) | tryptophan emission ([3]; before incubation with lipid vesicles) | tryptophan emission ([3]; incubation with lipid vesicles) | tryptophan emission ([3]; lipid vesicles plus urea) | membrane effect seen by SEM (GAS membranes) | MBC (GAS) | MIC (GAS) | MIC (GAS; listed as Synthetic delta-haemolysin) | MIC of delta-haemolysin in the presence of PSMdelta (GAS; with 2 μM PSMdelta)
MSIVSTIIEVVKTIVDIVKKFKK (listed as Staphylococcus epidermidis) [PSMdelta, peptide identified in S. epidermidis fraction 37, tested as synthetic peptide] | Dose-dependent fluorescence |  |  |  |  |  |  |  |  |  |  |  |  | 
CC[C@H](C)[C@H](NC(=O)[C@H](Cc1c[nH]c2ccccc12)NC(=O)[C@H](CCCCN)NC(=O)[C@@H](NC(=O)[C@H](CC(C)C)NC(=O)[C@H](CC(=O)O)NC(=O)CNC(=O)[C@@H](NC(=O)[C@@H](NC(=O)[C@H](CO)NC(=O)[C@@H](NC(=O)[C@@H](NC(=O)[C@H](CC(=O)O)NC(=O)[C@H](C)NC(=O)[C@H](C)NC(=O)[C@@H](N)CCSC)[C@@H](C)CC)[C@@H](C)CC)[C@@H](C)O)[C@@H](C)CC)C(C)C)C(=O)N[C@H](C(=O)N[C@@H](CC(=O)O)C(=O)N[C@H](C(=O)N[C@H](C(=O)N[C@@H](CC(N)=O)C(=O)N[C@@H](CCCCN)C(=O)N[C@@H](Cc1ccccc1)C(=O)N[C@@H](CCCCN)C(=O)N[C@@H](CCCCN)C(=O)O)C(C)C)[C@@H](C)O)[C@@H](C)CC [delta-haemolysin] | Dose-dependent fluorescence | 1.43 kcal/mol | 2.14 M urea | 1.57 kcal/mol | 3.20 M urea and 3.2 M urea | 1.57 kcal/mol | 339 nm | 332 nm | 335 nm | membrane blebbing and disruption | 16 µM (≈ 45.1 µg/mL) | 8 µM (≈ 22.6 µg/mL) | 16 µM (≈ 45.1 µg/mL) | 4 µM
CRAMP [reference compound] |  |  |  |  |  |  |  |  |  | Membrane disruption |  |  |  | 
